Laboratory results taken from patent publication US12036212B2, “Enhancement of tumor response to chemotherapy by activation of the asmase/ceramide pathway through timed administration of a short-acting anti-angiogenic agent” (Memorial Sloan-Kettering Cancer Center, priority 2014, dated 2024).

What was measured:
CRM = CRM detection by confocal microscopy in BAEC; type: cell-based, bovine; conditions: nystatin 30 μg/mL 30 min pre-treatment, paclitaxel 100 nM
Protocol: BAEC were grown on CC2-treated chamber slides (Nalge Nunc International Corp., Naperville, USA) and then exposed to etoposide or paclitaxel with or without pre-incubation with Nystatin (30 μg/ml, Sigma) for 30 min. BAEC were then washed in cold PBS, fixed for 15 min in fresh 2% paraformaldehyde, washed 2× with cold PBS, and blocked with 5% FBS in PBS for 20 min at room temperature. Cells were stained with anti-ceramide MID 15B4 IgM (Alexis Corporation) at 1:50 dilution for 1 hour at room temperature, washed 3× in PBS, and thereafter with Texas Red-conjugated secondary antibody (Jackson Immunoresearch Laboratories, Inc.) at 1:500 dilution for 1 hour at room temperature. Nonspecific fluorescence was excluded using isotype control IgM (BD Biosciences). Cells were washed 3×, stained with DAPI and mounted in 0.1% paraphenylenediamine. Fluorescence was detected using Leica TCS SP2 AOBS 1- and 2-photon laser scanning confocal (DMRXA2 upright stand) microscope coupled with MetaMorph 7.5 (Molecular Devices). Number of CRMs in membranes of endothelial cells was analyzed using MetaMorph 7.5 software that allowed outlining of regions containing CRMs based on two criteria: 1) CRM size (≥500 nm); 2) Intensity of ceramide staining. Mice: asmase^+/+ and asmase^−/− mice, maintained in a SCID background, were propagated using heterozygous breeding pairs and genotyped as previously described (Santana et al. Cell, 86, 189-199, 1996; Grassme et al. Nat Med 9, 322-330 (2003). 6-12 week-old C57BL6/SV129 male mice, purchased from The Jackson Laboratory (Bar Harbor).
To test the effect of chemotherapy on ASMase signaling and ceramide production, BAEC were treated with paclitaxel (100 nM) and ASMase activity was determined by radioenzymatic assay (Rotolo et al, infra) using [^14C-methylcholine] sphingomyelin (Amersham) as substrate (FIG. 1A). Induction of ASMase activity was observed within 5 minutes after treatment, and the activation continued for 30 minutes. Ceramide generation was monitored using the diacylglycerol kinase assay (Stancevic et al. PLoS ONE 8, e69025, 2013). […]

BAEC = assay: Apoptosis in vitro (Hoechst nuclear staining) in BAEC; type: cell-based, bovine; conditions: 8 hours; for Effect on etoposide-induced apoptosis: BAEC pre-incubated 30 min with bFGF 2 ng/mL, VEGF 2 ng/mL or nystatin 30 μg/mL, etoposide 50 μM
Protocol: Apoptosis was assessed in vitro by examining morphologic changes in nuclear chromatin using bis-benzimide trihydrochloride (Hoechst #33258; Sigma-Aldrich, Milwaukee WI). BAEC and HCAEC monolayer cultures were first detached using 0.25% trypsin and 0.02% EDTA in HBSS and then combined with the floating population of cells. The cell pellet was washed in PBS, resuspended in 3% paraformaldehyde, and incubated for 10 min at 22° C. Following the removal of fixative, cells were resuspended in PBS containing 8 μg/ml of Hoechst-33258. Following a 15-min incubation at 22° C., cells were placed on a glass slide, and scored for the incidence of apoptotic chromatin changes using fluorescence microscope.
Since the ASMase/ceramide pathway is known to play a critical role in endothelial injury and dysfunction, BAEC and HCAEC were treated with paclitaxel (100 nM), etoposide (50 μM), and cisplatin (0.1-50 μM), and endothelial apoptosis was assessed.
To set the basis for experiments involving evaluation of anti-angiogenic therapy in combination with chemotherapy, and the role of ASMase/ceramide pathway in this process, the effects of various factors on the chemotherapy induced cell death were assessed. BAEC were pre-incubated for 30 min with bFGF (2 ng/mL), VEGF (2 ng/mL) or nystatin (30 μg/mL) prior to treatment with etoposide (50 μM), and apoptosis was evaluated after 8 hours using bis-benzamide trihydrochloride staining (FIG. 3).

ASMase = ASMase activity radioenzymatic assay in BAEC; type: cell-based, bovine; conditions: etoposide 50 μM
Protocol: (§1) BAEC were established from the intima of bovine aorta as described^1. Stock cultures were grown in 100-mm dishes in Dulbecco's modified Eagle's medium (DMEM) supplemented with glucose (1 g/liter), 5% heat-inactivated calf serum (CS), penicillin (50 units/ml), and streptomycin (50 μg/ml). Purified human recombinant bFGF (1 ng/ml; R&D Systems, Inc., Minneapolis, MN) was added every other day during the exponential growth phase. […] These plateau phase cells were either used for experiments, or further sub-cultured (up to a maximum of 10 times) at a split ratio of 1:8. For sub-culturing, monolayers were dissociated with STV (0.05% trypsin and 0.02% EDTA in PBS) for 2-3 min at 22° C., washed twice in 5% CS-DMEM, and resuspended in DMEM with supplements as above. These mild conditions of trypsinization were sufficient to detach cells but not injure, stimulate, or affect cell function in a detectable way. BAEC were maintained at 37° C. in 10% CO2 humidified incubators.
ASMase activity was quantified by radioenzymatic assay using [^14C-methylcholine]sphingomyelin (Amersham) as substrate as described (Schissel et al. J Biol Chem, 271, 18431-18436, 1996). Cell lysates were incubated with [^14C-methylcholine]-sphingomyelin substrate (0.026 mCi/9.5 nmol) in 250 mM sodium acetate, pH 5.0 supplemented with 0.1% Triton X-100 and 1 mM EDTA or 0.1 mM ZnCl. Reactions were terminated after 1 h with CHCl3:MeOH:1N HCl (100:100:1, v/v/v), and [^14C-methylcholine]phosphocholine product in the aqueous layer of the Folch extract was quantified using a Beckman Packard 2200 CA Tricarb scintillation counter. For detection of ASMase activity in patients, 10 μl of serum was used.
To test the effect of chemotherapy on ASMase signaling and ceramide production, BAEC were treated with paclitaxel (100 nM) and ASMase activity was determined by radioenzymatic assay (Rotolo et al, infra) using [^14C-methylcholine] sphingomyelin (Amersham) as substrate (FIG. 1A). Induction of ASMase activity was observed within 5 minutes after treatment, and the activation continued for 30 minutes. Ceramide generation was monitored using the diacylglycerol kinase assay (Stancevic et al. PLoS ONE 8, e69025, 2013). […] In further support of this, pre-incubation of BAEC with nystatin prior to treatment with chemotherapy inhibits chemotherapy-induced apoptosis (FIG. 3).
To determine the generality of the results observed, experiments were carried out using an additional endothelial cell line, human coronary artery endothelial cells (HCAEC); experiments were also performed using a different chemotherapeutic agent. […] Next, HCAEC were treated with paclitaxel (100 nM) (data not shown) and etoposide (50 μM) (FIG. 1F), and ceramide generation was evaluated.
To further establish the generality of ASMase activation by various chemotherapeutic agents, BAEC and HCAEC were treated with increasing doses of cisplatin (0.1-50 μM) (data not shown). […] The ASMase/ceramide pathway was activated by chemotherapeutic agents that belong to different classes of chemotherapeutic agents, such as: taxanes, topoisomerase inhibitors, and nucleoside analog metabolic inhibitors. Since such chemotherapy agents are characterized by distinct mechanisms of action in tumor cells, it is surprising that a group of such distinct agents converges on a common molecular (ASMase/ceramide) axis in endothelium. The present confirmation that distinct chemotherapeutic agents activate the ASMase/ceramide pathway permits the present inventors to take into account the results of experiments using single dose radiotherapy, which has been reported to activate the same pathway (Rao, S. S. et al., Axitinib sensitization of high Single Dose Radiotherapy. Radiotherapy and Oncology: Journal of the European Society for Therapeutic Radiology and Oncology 111, 88-93, doi:10.1016/j.radonc.2014.02.010 (2014)).
Gemcitabine was able to activate ASMase in cultured endothelial cells. […]

ceramide [1] = assay: Ceramide generation (diacylglycerol kinase assay) in BAEC; type: cell-based, bovine; conditions: etoposide 50 μM
Protocol: as §1
After treatment, cells were placed on ice, washed with cold PBS, and lipids were extracted by addition of scraped cells in methanol to an equal volume of chloroform and 0.6 volume of buffered saline/EDTA solution (135 mM NaCl, 4.5 mM KCl, 1.5 mM CaCl2), 0.5 mM MgCl2, 5.6 mM glucose, 10 mM HEPES pH 7.2, 10 mM EDTA). Lipids in the organic phase extract were dried under N2 and subjected to mild alkaline hydrolysis (0.1 N methanolic KOH for 1 hour at 37° C.) to remove glycerophospholipids. Samples were re-extracted, and the organic phase was dried under N2. Ceramide contained in each sample was resuspended in a 100 μl reaction mixture containing 150 μg of cardiolipin, 280 μM diethylenetriaminepentaacetic acid, 51 mM octyl-β-glucopyranoside (Calbiochem), 50 mM NaCl, 51 mM imidazole, 1 mM EDTA, 12.5 mM MgCl2, 2 mM dithiothreitol, 0.7% glycerol, 70 μM β-mercaptoethanol, 1 mM ATP, 10 μCi of [γ-^32P]ATP, 35 μg/ml Escherichia coli diacylglycerol kinase (Calbiochem) at pH 6.5. After 30 minutes at room temperature, the reaction was stopped by extraction of lipids with 1 ml of chloroform:methanol:1 N HCl (100:100:1), 170 μl of buffered saline solution (BSS) (135 mM NaCl, 1.5 mM CaCl2, 0.5 mM MgCl2, 5.6 mM glucose, and 10 mM HEPES (pH 72), and 30 μl of 100 mM EDTA. The lower organic phase was dried under N2. Ceramide-1 phosphate was resolved by thin-layer chromatography on silica gel 60 plates (Whatman) using a solvent system of chloroform:methanol:acetic acid (65:15:5, v/v/v) and detected by autoradiography, and incorporated ^32P was quantified by liquid scintillation counting. The level of ceramide was determined by comparison with a standard curve generated concomitantly of known amounts of ceramide.
To test the effect of chemotherapy on ASMase signaling and ceramide production, BAEC were treated with paclitaxel (100 nM) and ASMase activity was determined by radioenzymatic assay (Rotolo et al, infra) using [^14C-methylcholine] sphingomyelin (Amersham) as substrate (FIG. 1A). […] Ceramide generation was monitored using the diacylglycerol kinase assay (Stancevic et al. PLoS ONE 8, e69025, 2013). […]
(§2) To determine the generality of the results observed, experiments were carried out using an additional endothelial cell line, human coronary artery endothelial cells (HCAEC); experiments were also performed using a different chemotherapeutic agent. […] Next, HCAEC were treated with paclitaxel (100 nM) (data not shown) and etoposide (50 μM) (FIG. 1F), and ceramide generation was evaluated. […]

ceramide [2] = assay: Ceramide generation in HCAEC; type: cell-based, human; conditions: paclitaxel 100 nM, etoposide 50 μM, cisplatin 0.1-50 μM
Protocol: HCAEC were obtained from Clonetics™ Coronary Artery Endothelial Cell Systems (Cambrex Bio Science Inc.). For HCAEC culturing and sub-culturing Clonetics cell system components were used: EBM®-2, Endothelial Cell Basal Medium-2 with addition of Clonetics EGM-2-MV SingleQuots containing growth supplements (Cambrex) (Biomedical Technologies, Inc.). For sub-culturing, monolayers were dissociated with Clonetics® Trypsin/EDTA solution for 2-3 min at 22° C. at a split ratio of 1:4 to expand the cell population for experiments. HCAEC cultures were maintained at 37° C. in 5% CO2 humidified incubators.
After treatment, cells were placed on ice, washed with cold PBS, and lipids were extracted by addition of scraped cells in methanol to an equal volume of chloroform and 0.6 volume of buffered saline/EDTA solution (135 mM NaCl, 4.5 mM KCl, 1.5 mM CaCl2), 0.5 mM MgCl2, 5.6 mM glucose, 10 mM HEPES pH 7.2, 10 mM EDTA). […] After 30 minutes at room temperature, the reaction was stopped by extraction of lipids with 1 ml of chloroform:methanol:1 N HCl (100:100:1), 170 μl of buffered saline solution (BSS) (135 mM NaCl, 1.5 mM CaCl2, 0.5 mM MgCl2, 5.6 mM glucose, and 10 mM HEPES (pH 72), and 30 μl of 100 mM EDTA. The lower organic phase was dried under N2. Ceramide-1 phosphate was resolved by thin-layer chromatography on silica gel 60 plates (Whatman) using a solvent system of chloroform:methanol:acetic acid (65:15:5, v/v/v) and detected by autoradiography, and incorporated ^32P was quantified by liquid scintillation counting. The level of ceramide was determined by comparison with a standard curve generated concomitantly of known amounts of ceramide.
as §2

[3] = in vivo; cited from earlier work

Compound: C[C@@H]1[C@H](O)[C@@H](C)/C=C/C=C/CC/C=C/C=C/C=C/C=C/C(O[C@H]2O[C@H](C)[C@@H](O)[C@H](N)[C@@H]2O)CC2O[C@](O)(CC(O)C(O)CCC(O)CC(O)CC(O)CC(=O)O[C@H]1C)CC(O)C2C(=O)O (some centres unmarked) [nystatin]
- Effect on paclitaxel-induced CRM formation (CRM): prevented the formation of CRMs
- Effect on etoposide-induced apoptosis (BAEC): substantially inhibits etoposide-induced apoptosis

Compound: VEGF
- Effect on etoposide-induced apoptosis (BAEC): substantially inhibits etoposide-induced apoptosis

Compound: COc1cc([C@@H]2c3cc4c(cc3[C@@H](O[C@@H]3O[C@@H]5CO[C@@H](C)O[C@H]5[C@H](O)[C@H]3O)[C@H]3COC(=O)[C@H]23)OCO4)cc(OC)c1O [etoposide]
- ASMase activation remained for (ASMase): 30 min
- ASMase activation (ASMase; cisplatin 0.1-50 μM, gemcitabine 100 nM time-course): activation of ASMase
- Ceramide formation remained for (ceramide [1]): 30 min
- Ceramide generation (ceramide [1]; paclitaxel 100 nM, cisplatin 0.1-50 μM): ceramide formation within a few minutes
- Ceramide generation (ceramide [2]): leads to the generation of ceramide
- Apoptotic response (BAEC; bovine endothelial cells, cisplatin up to 50 μM, etoposide 50 μM alone): significantly induces apoptosis

Compound: CNC(=O)c1cc(Oc2ccc(NC(=O)Nc3ccc(Cl)c(C(F)(F)F)c3)cc2)ccn1 [sorafenib]
- Average half-life [3]: 25 to 48 h

Compound: Cc1ccc(Nc2nccc(N(C)c3ccc4c(C)n(C)nc4c3)n2)cc1S(N)(=O)=O [pazopanib]
- Average half-life [3]: about 30 hours

Compound: Clc1ccc(Nc2nnc(Cc3ccncc3)c3ccccc23)cc1 [vatalanib]
- Average half-life [3]: 4.7 h

Compound: CCN(CC)CCNC(=O)c1c(C)[nH]c(/C=C2\C(=O)Nc3ccc(F)cc32)c1C [sunitinib]
- Average half-life [3]: 40 to 60 h

Compound: Cc1ccc(C(=O)Nc2ccc(CN3CCN(C)CC3)c(C(F)(F)F)c2)cc1C#Cc1cnc2cccnn12 [ponatinib]
- Average half-life [3]: 24 h

Compound: bFGF: basic fibroblast growth factor, pro-angiogenic factor
- Effect on etoposide-induced apoptosis (BAEC): substantially inhibits etoposide-induced apoptosis

Compound: CNC(=O)c1ccccc1Sc1ccc2c(/C=C/c3ccccn3)n[nH]c2c1 [axitinib]
- Average half-life [3]: 2.5 to 6 h

Compound: anginex
- Half-life [3]: ~0.833 h

Compound: COc1cc2c(Oc3ccc4[nH]c(C)cc4c3F)ncnc2cc1OCCCN1CCCC1 [cediranib]
- Average half-life [3]: 22 to 27 h

Compound: Cc1[nH]c(/C=C2\C(=O)Nc3ccccc32)c(C)c1CCC(=O)O [SU6668]
- Average half-life [3]: 3.6 h

Compound: COc1cc2nccc(Oc3ccc(NC(=O)C4(C(=O)Nc5ccc(F)cc5)CC4)cc3)c2cc1OC [cabozantinib]
- Average half-life [3]: 55 h
